Results from patent publication US10947244B2, “Forms of a PI3K delta selective inhibitor for use in pharmaceutical formulations” (Rhizen Pharmaceuticals SA, priority 2014, dated 2021).

Assay: Particle size (PSD) analysis, Malvern Master Sizer 2000 dry powder
Format: physicochemical
Settings: PTSA salt of TGR-1202; average of three experiments
Method: Particle size (PSD) analysis of the PTSA salts of TGR-1202 prepared in Examples 1 and 2 was performed as described below using a Malvern Master Sizer 2000 with the Scirocco 2000 dry powder system. The instrument parameters were: • Particle RI: 1.50 • Absorption index: 0.1 • Obscuration range: 1-5% • Analysis Model: General purpose • Sensitivity: Normal • Air Pressure: 2.0 Bar • Feed rate: 30% • Sample measurement Time: 6 Second • Background measurement Time: 6 Second • Number of measurement cycle: 1
Procedure: 5 g of TGR-1202 was transferred into a sample measuring cell (i.e., Scirocco 2000) and the airflow was started. Laser intensity was maintained more than 70%. Measurement was started and the vibration feed rate was increased in order to achieve the obscuration within the limits. Once the obscuration came within the limit, measurement was recorded. Analysis was performed in triplicate and the results provided are an average of three experiments.

CC(C)Oc1ccc(-c2nn([C@@H](C)c3oc4ccc(F)cc4c(=O)c3-c3cccc(F)c3)c3ncnc(N)c23)cc1F [Example 2, (S)-2-(1-(4-amino-3-(3-fluoro-4-isopropoxyphenyl)-1H-pyrazolo[3,4-d]pyrimidin-1-yl)ethyl)-6-fluoro-3-(3-fluorophenyl)-4H-chromen-4-one 4-methyl-benzenesulfonate]
d(0.1): 1.07 μm | d(0.5): 3.98 μm | d(0.9): 12.18 μm

CC(C)Oc1ccc(-c2nn([C@@H](C)c3oc4ccc(F)cc4c(=O)c3-c3cccc(F)c3)c3ncnc(N)c23)cc1F [Example 1, (S)-2-(1-(4-amino-3-(3-fluoro-4-isopropoxyphenyl)-1H-pyrazolo[3,4-d]pyrimidin-1-yl)ethyl)-6-fluoro-3-(3-fluorophenyl)-4H-chromen-4-one 4-methyl-benzenesulfonate]
d(0.1): 8.01 μm | d(0.5): 147.41 μm | d(0.9): 510.73 μm
